# Where “and” joins values, the source holds several entries; their conditions need not be identical. Equal entries are not always repeated. Entries after “also recorded” stand apart in the source; their conditions may differ. Numbered stars: 1 amine (or outer) side, 2 acyl side, 3 side chain; on linkers, the order of the positions; unused ones are H or OH. Bridge positions count the residues as written; N and C are the ends. Square brackets hold non-standard residues; d marks the D form. Ends that are not written are not given here. Peptide text beside a SMILES is read from it. I, II: the chains in the order shown. Actinocin(9to1) = Cc1c2oc3c(C)ccc(C(=O)[*:1])c3nc-2c(C(=O)[*:2])c(N)c1=O; NMeV = CN[C@H](C(=O)O)C(C)C; Sar = CNCC(=O)O
# Tests used:
# human ASM cells [1] = experiment: Assay of cAMP PDE activity in ASM cell lysates; assay type: cell-based; settings: for effect of the agent alone on basal PDE activity: no cAMP-elevating agent; for PDE activity, fold above control: cells incubated 24 hr with the agent (PGE2 or forskolin 100 μM; salmeterol or isoproterenol 10 μM)
# Procedure: Assay of cAMP PDE activity: Levels of cAMP PDE activity were assayed in ASM cell lysates using a colorimetric, non-radioactive enzymatic assay kit from Biomol, as per the manufacture's protocol. PDE activity was determined following exposure of ASM cells for 24 hr to either vehicle alone (control), PGE2 (100 μM), or forskolin (100 μM) in the absence and presence of pretreatment with rolipram (10 μM), cycloheximide (100 μM), actinomycin D (4 μM), or H89 (10 μM).
# In each case, the measured levels of PDE activity were standardized to the protein content in the cell extracts.
# human ASM cells [2] = experiment: Assay of cAMP PDE activity in ASM cell lysates; assay type: cell-based; settings: for effect of pretreatment on PGE2- and forskolin-induced increases in PDE activity: PGE2 or forskolin x 24 hr (100 μM in text, 100 nM in legends); for effect of pretreatment on salmeterol- and isoproterenol-induced increase in PDE activity: salmeterol or isoproterenol 10 μM x 24 hr; for effect of pretreatment on PGE2-induced increase in PDE activity: PGE2 100 nM x 24 hr, peptides 30 μM (Example III)
# PDE4D5 mRNA = experiment: Detection of PDE4D5 mRNA transcripts by RT-PCR in ASM cells; assay type: cell-based, human
# Source text: (§1) Detection of PDE4D5 mRNA transcripts: Total RNA was extracted from the cultured ASM cells using the TRIzol method (Invitrogen), and cDNAs were isolated by RT-PCR using the SuperScript First Strand Synthesis System kit from Invitrogen, with the following oligonucleotide primer sets (Integrated DNA Technologies): for PDE4D5, 5′-[…]-3′ (forward; SEQ ID NO: 2) and 5′-[…]-3′ (reverse; SEQ ID NO: 3); and for β-actin, 5′-[…]-3′ (forward; SEQ ID NO: 4) and 5′-[…]-3′ (reverse; SEQ ID NO: 5). The reaction volume was 20 μl and cycling conditions used were 35 cycles of 30 sec denaturation at 95° C., followed by 30 sec annealing at 60° C. and elongation at 72° C. for 30 sec. Ex-Tag (Takara Biotechnology) was used as DNA polymerase. […] Following protein extraction and the addition of gel-loading buffer, the extracts were loaded on a 10% SDS-PAGE gel for immunoblotting after transfer to a PVDF membrane. The membranes were then incubated overnight with monoclonal mouse anti-human primary antibodies directed against phospho-CREB and -ATF1, phospho-ERK1/2, or α-actin, and levels were detected by ECL after a 1-hr incubation with a 1:2,000 dilution of HRP-conjugated rabbit anti-mouse secondary antibody, followed by exposure to autoradiography film. The protein band intensities were quantified by densitometry. siRNA-mediated knockdown of PKA: ASM cells were seeded into 6-well plates and, at ˜40% confluency, the medium was replaced with the reduced serum-containing medium, Opti-MEM (Invitrogen). The cells were then transfected twice during a 24-hr interval with two pools of three siRNA duplexes, each pool targeted against the human PKAα or PKAγ catalytic subunits (Santa Cruz Biotechnology; sc-36240 and sc-36236, respectively), or with a non-targeted control (scrambled) siRNA duplex, using Oligofectamine (Invitrogen) as the transfection agent. The pools of siRNAs were applied to each well at a final concentration of 100 nM for each siRNA preparation. […] Transfection of ASM cells with adeno-βARK-ct: Adenovirus (adeno)-βARK-ct, an adenovirus vector encoding the βARK1 carboxyl-terminal domain which blocks Gβγ signaling (25,26), and adeno-β-gal, an adenovirus vector expressing lacZ as a negative control, were constructed using the AdenoX adenovirus construction kit (BD-Clontech). Recombinant plaques were isolated and propagated in HEK293 cells (Invitrogen), with viral purification using the cesium chloride gradient method, and viral titer detected by plaque assay. The ASM cells were transfected with either of the adenoviral vectors at a multiplicity of infection (MOI) of 100, and experiments were conducted at 24 hr following adenoviral tranfections. Pharmacodynamic studies of constrictor and relaxation responsiveness in rabbit ASM tissues: Following initial sedation and subsequent general anesthesia with intramuscular injections of xylazine (10 mg/kg) and ketamine (50 mg/kg), respectively, rabbits were sacrificed with an intravenously administered overdose of sodium pentobarbital (100 mg/kg). As described previously (16), the tracheae were excised via open thoracotomy, the loose connective tissue and epithelium were scraped and removed, and the tracheae were divided into 8 ring segments, each of 6-8 mm in length. […] After these incubations, the tissues were placed in organ baths containing modified Krebs-Ringer solution aerated with 5% CO2 in oxygen (pH of 7.35-7.40), and attached to force transducers to continuously monitor isometric tension. […] The constrictor and relaxation dose-response curves were analyzed with respect to each tissue's maximal isometric contractile force (Tmax) to ACh and maximal relaxation response (Rmax) to isoproterenol from the initial level of active cholinergic contraction. Statistical analyses: Results are expressed as mean±SE values. Comparisons between groups were made using the Student's t-test (two-tailed) or ANOVA with Tukey's post-test analysis, where appropriate.
# CREB/ATF1 = experiment: Immunoblot analysis of CREB/ATF1 phosphorylation in ASM cells; assay type: cell-based, human; settings: PGE2 100 nM
# Source text: as §1
# ERK1/2 = experiment: Immunoblot analysis of ERK1/2 phosphorylation in ASM cells; assay type: cell-based, human
# Source text: as §1
# rabbit ASM tissues [3] = experiment: Constrictor responsiveness to acetylcholine (ACh) in isolated rabbit ASM tissues, isometric tension in organ bath
# Source text: as §1
# rabbit ASM tissues [4] = experiment: Relaxation responsiveness to isoproterenol in isolated rabbit ASM tissues half-maximally contracted with ACh
# Source text: as §1
# [5] = vehicle-exposed control tissues
compound,measurement,setting,value
"Cc1c2oc3c(C)ccc(C(=O)N[C@@H]4C(=O)N[C@H](C(C)C)C(=O)N5CCC[C@H]5C(=O)N(C)CC(=O)N(C)[C@@H](C(C)C)C(=O)O[C@@H]4C)c3nc-2c(C(=O)N[C@@H]2C(=O)N[C@H](C(C)C)C(=O)N3CCC[C@H]3C(=O)N(C)CC(=O)N(C)[C@@H](C(C)C)C(=O)O[C@@H]2C)c(N)c1=O [actinomycin D] (I: T[dV]P[Sar][NMeV] / II: T[dV]P[Sar][NMeV]; ester I:1-I:C, II:1-II:C; linker I:N-II:N via Actinocin(9to1))",effect of the agent alone on basal PDE activity,human ASM cells [1],neither actinomycin D nor cycloheximide alone significantly affected
same,effect of pretreatment on PGE2- and forskolin-induced increases in PDE activity,human ASM cells [2],completely ablated
same,effect of pretreatment on salmeterol- and isoproterenol-induced increase in PDE activity,human ASM cells [2],completely ablated
C[C@@H]1C[C@@H]([C@H](O)CC2CC(=O)NC(=O)C2)C(=O)[C@@H](C)C1 [cycloheximide],effect of the agent alone on basal PDE activity,human ASM cells [1],neither actinomycin D nor cycloheximide alone significantly affected
same,effect of pretreatment on PGE2- and forskolin-induced increases in PDE activity,human ASM cells [2],completely ablated
same,effect of pretreatment on salmeterol- and isoproterenol-induced increase in PDE activity,human ASM cells [2],completely ablated
C=C[C@@]1(C)CC(=O)[C@]2(O)[C@@]3(C)[C@@H](O)CCC(C)(C)[C@@H]3[C@H](O)[C@H](OC(C)=O)[C@@]2(C)O1 [forskolin],"PDE activity, fold above control",human ASM cells [1],4.01 fold
CC(C)NCC(O)c1ccc(O)c(O)c1 (centres unmarked) [isoproterenol],cAMP PDE (PDE4) activity relative to vehicle-treated control cells,human ASM cells [1]; cells exposed 24 hr to the agent,significantly increased
same,"PDE activity, fold above control",human ASM cells [1],~2 fold
same,time of peak PDE4D5 mRNA induction,"PDE4D5 mRNA; PGE2 100 nM, salmeterol or isoproterenol 10 μM",6 h
same,"peak PDE4D5 mRNA expression, fold above unstimulated cells","PDE4D5 mRNA; densitometric analysis, 3 experiments, PGE2 100 nM, salmeterol or isoproterenol 10 μM",5.7 fold
same,phosphorylation of CREB and ATF1 in cells treated with the agent,CREB/ATF1; isoproterenol 10 μM,transiently increased phosphorylation
same,time of peak CREB/ATF1 phosphorylation,CREB/ATF1; isoproterenol 10 μM,30 min
same,time of peak ERK1/2 phosphorylation,"ERK1/2; PGE2 100 nM, isoproterenol or salmeterol 10 μM",20 min
same,ERK1/2 phosphorylation in cells treated with the agent,"ERK1/2; PGE2 or forskolin 100 nM, isoproterenol or salmeterol 10 μM",increased phosphorylation of ERK1/2; also recorded: enhanced ERK1/2 phosphorylation
same,"increase in ERK1/2 phosphorylation, fold above control (vehicle-treated) cells","ERK1/2; densitometric ratios, mean±SE, PGE2 30 min, isoproterenol 20 min",2.30±0.18 fold and 2.3 fold
MPS- Gαi2 (AAVALLPAVLLALLAKNNLKDCGLF; also: MPS attached) [Gαi2 blocking peptide],effect of pretreatment on PGE2-induced increase in PDE activity,human ASM cells [2],only a partial inhibitory effect
same,effect of pretreatment on PGE2-induced increase in PDE activity,human ASM cells [2]; listed as anti-Gαi2 inhibitory peptide,only exerts a partial inhibitory effect
pertussis toxin [PTX],effect of pretreatment on PGE2-induced increase in constrictor responsiveness to ACh,rabbit ASM tissues [3]; PGE2 100 nM x 24 hr,abrogated
same,effect of the agent alone on constrictor responses to ACh,rabbit ASM tissues [3]; [5],no significant effect
same,effect of pretreatment on PGE2-induced impaired relaxation to isoproterenol,rabbit ASM tissues [4]; PGE2 100 nM x 24 hr,abrogated
same,effect of the agent alone on relaxation responses to isoproterenol,rabbit ASM tissues [4]; [5],no significant effect
same,effect of pretreatment on PGE2-induced upregulated PDE4D5 mRNA expression,"PDE4D5 mRNA; PGE2 100 nM, 6 hr",markedly inhibited; also recorded: ablated
same,effect of pretreatment on β2AR agonist (isoproterenol)-induced upregulated PDE4D5 mRNA expression,"PDE4D5 mRNA; isoproterenol 10 μM, 6 hr",prevented; also recorded: ablated
same,effect on PGE2-induced phosphorylation of CREB/ATF1,CREB/ATF1; 30 min,largely prevented; also recorded: ablated
same,effect on PGE2-induced phosphorylation of ERK1/2,"ERK1/2; PGE2 100 nM, 30 min",largely prevented; also recorded: ablated
same,effect of pretreatment on PGE2-induced increase in PDE activity,human ASM cells [2],completely ablated
same,effect of pretreatment on PGE2- and forskolin-induced increases in PDE activity,human ASM cells [2],completely ablated
same,effect of pretreatment on salmeterol- and isoproterenol-induced increase in PDE activity,human ASM cells [2],completely abrogated; also recorded: ablated
